PubChem BioAssay (NCI)
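Where inhibition never reached the appropriate level, the endpoint shown equals the highest concentration tested. Otherwise, values were interpolated linearly from a five-concentration, 48-hour dose response in 96-well plates. GI50 marks 50% less growth. Definition used: TGI = concentration required for complete inhibition of growth.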

Assays:
Assay in all cases: inhibition of tumour cell growth, NCI panel, 48 h
[1] = tested on: OVCAR-5 ovarian
[2] = tested on: SK-MEL-2 melanoma
[3] = tested on: HCC-2998 colon
[4] = tested on: 786-0 renal
[5] = tested on: K-562 leukemia
[6] = tested on: SR leukemia
[7] = tested on: MALME-3M melanoma
[8] = tested on: IGROV1 ovarian
[9] = tested on: UACC-257 melanoma
[10] = tested on: NCI/ADR-RES ovarian
[11] = tested on: SNB-75 CNS
[12] = tested on: SF-295 CNS
[13] = tested on: MOLT-4 leukemia
[14] = tested on: M14 melanoma
[15] = tested on: HCT-116 colon
[16] = tested on: SK-MEL-28 melanoma
[17] = tested on: OVCAR-4 ovarian
[18] = tested on: U251 CNS
[19] = tested on: CAKI-1 renal
[20] = tested on: A498 renal
[21] = tested on: CCRF-CEM leukemia
[22] = tested on: RPMI-8226 leukemia
[23] = tested on: UO-31 renal
[24] = tested on: NCI-H23 lung
[25] = tested on: HS 578T breast
[26] = tested on: SNB-19 CNS
[27] = tested on: SF-268 CNS
[28] = tested on: KM12 colon
[29] = tested on: MDA-MB-435
[30] = tested on: SN12C renal
[31] = tested on: MDA-MB-231 breast
[32] = tested on: OVCAR-8 ovarian
[33] = tested on: LOX IMVI melanoma
[34] = tested on: OVCAR-3 ovarian
[35] = tested on: SK-MEL-5 melanoma
[36] = tested on: ACHN renal
[37] = tested on: MCF7 breast
[38] = tested on: DU-145 prostate
[39] = tested on: HOP-92 NSCLC
[40] = tested on: RXF 393 renal
[41] = tested on: BT-549 breast
[42] = tested on: PC-3 prostate
[43] = tested on: SW-620 colon
[44] = tested on: SK-OV-3 ovarian
[45] = tested on: T-47D breast
[46] = tested on: TK-10 renal
[47] = tested on: NCI-H226 lung
[48] = tested on: A549 NSCLC
[49] = tested on: NCI-H460 lung
[50] = tested on: HCT-15 colon
[51] = tested on: UACC-62 melanoma
[52] = tested on: SF-539 CNS
[53] = tested on: HOP-62 NSCLC
[54] = tested on: HT29 colon
[55] = tested on: EKVX NSCLC
[56] = tested on: NCI-H522 lung
[57] = tested on: HL-60(TB) leukemia
[58] = tested on: COLO 205 colon

CC1(C)OC2C(COS(N)(=O)=O)SC(n3cnc4cncnc43)C2O1 (configuration not stated)
GI50 [1]: > 100 µM
TGI [1]: > 100 µM
GI50 [2]: > 100 µM
TGI [2]: > 100 µM
GI50 [3]: > 100 µM
TGI [3]: > 100 µM
GI50 [4]: > 100 µM
TGI [4]: > 100 µM
GI50 [5]: > 100 µM
TGI [5]: > 100 µM
GI50 [6]: > 100 µM
TGI [6]: > 100 µM
GI50 [7]: > 100 µM
TGI [7]: > 100 µM
GI50 [8]: > 100 µM
TGI [8]: > 100 µM
GI50 [9]: > 100 µM
TGI [9]: > 100 µM
GI50 [10]: > 100 µM
TGI [10]: > 100 µM
GI50 [11]: > 100 µM
TGI [11]: > 100 µM
GI50 [12]: > 100 µM
TGI [12]: > 100 µM
GI50 [13]: > 100 µM
TGI [13]: > 100 µM
GI50 [14]: > 100 µM
TGI [14]: > 100 µM
GI50 [15]: > 100 µM
TGI [15]: > 100 µM
GI50 [16]: > 100 µM
TGI [16]: > 100 µM
GI50 [17]: > 100 µM
TGI [17]: > 100 µM
GI50 [18]: > 100 µM
TGI [18]: > 100 µM
GI50 [19]: > 100 µM
TGI [19]: > 100 µM
GI50 [20]: > 100 µM
TGI [20]: > 100 µM
GI50 [21]: > 100 µM
TGI [21]: > 100 µM
GI50 [22]: > 100 µM
TGI [22]: > 100 µM
GI50 [23]: > 100 µM
TGI [23]: > 100 µM
GI50 [24]: > 100 µM
TGI [24]: > 100 µM
GI50 [25]: > 100 µM
TGI [25]: > 100 µM
GI50 [26]: > 100 µM
TGI [26]: > 100 µM
GI50 [27]: > 100 µM
TGI [27]: > 100 µM
GI50 [28]: > 100 µM
TGI [28]: > 100 µM
GI50 [29]: > 100 µM
TGI [29]: > 100 µM
GI50 [30]: > 100 µM
TGI [30]: > 100 µM
GI50 [31]: > 100 µM
TGI [31]: > 100 µM
GI50 [32]: > 100 µM
TGI [32]: > 100 µM
GI50 [33]: > 100 µM
TGI [33]: > 100 µM
GI50 [34]: > 100 µM
TGI [34]: > 100 µM
GI50 [35]: > 100 µM
TGI [35]: > 100 µM
GI50 [36]: > 100 µM
TGI [36]: > 100 µM
GI50 [37]: > 100 µM
TGI [37]: > 100 µM
GI50 [38]: > 100 µM
TGI [38]: > 100 µM
GI50 [39]: > 100 µM
TGI [39]: > 100 µM
GI50 [40]: > 100 µM
TGI [40]: > 100 µM
GI50 [41]: > 100 µM
TGI [41]: > 100 µM
GI50 [42]: > 100 µM
TGI [42]: > 100 µM
GI50 [43]: > 100 µM
TGI [43]: > 100 µM
GI50 [44]: > 100 µM
TGI [44]: > 100 µM
GI50 [45]: > 100 µM
TGI [45]: > 100 µM
GI50 [46]: > 100 µM
TGI [46]: > 100 µM
GI50 [47]: > 100 µM
TGI [47]: > 100 µM
GI50 [48]: > 100 µM
TGI [48]: > 100 µM
GI50 [49]: > 100 µM
TGI [49]: > 100 µM
GI50 [50]: > 100 µM
TGI [50]: > 100 µM
GI50 [51]: > 100 µM
TGI [51]: > 100 µM
GI50 [52]: > 100 µM
TGI [52]: > 100 µM
GI50 [53]: > 100 µM
TGI [53]: > 100 µM
GI50 [54]: > 100 µM
TGI [54]: > 100 µM
GI50 [55]: > 100 µM
TGI [55]: > 100 µM
GI50 [56]: > 100 µM
TGI [56]: > 100 µM
GI50 [57]: > 100 µM
TGI [57]: > 100 µM
GI50 [58]: > 100 µM
TGI [58]: > 100 µM

Cc1cc(Cl)ccc1Nc1nc(C(F)(F)F)ccc1C(=O)N1CCN(c2cccc(Cl)c2)CC1
GI50 [1]: > 100 µM
TGI [1]: > 100 µM
GI50 [2]: > 100 µM
TGI [2]: > 100 µM
GI50 [3]: 49.3 µM
TGI [3]: > 100 µM
GI50 [4]: > 100 µM
TGI [4]: > 100 µM
GI50 [5]: 19.7 µM
TGI [5]: > 100 µM
GI50 [6]: > 100 µM
TGI [6]: > 100 µM
GI50 [7]: > 100 µM
TGI [7]: > 100 µM
GI50 [8]: 1.78 µM
TGI [8]: > 100 µM
GI50 [9]: > 100 µM
TGI [9]: > 100 µM
GI50 [10]: > 100 µM
TGI [10]: > 100 µM
GI50 [11]: 1.11 µM
TGI [11]: 87.5 µM
GI50 [12]: 88.9 µM
TGI [12]: > 100 µM
GI50 [13]: 19.6 µM
TGI [13]: > 100 µM
GI50 [14]: > 100 µM
TGI [14]: > 100 µM
GI50 [15]: 37.3 µM
TGI [15]: > 100 µM
GI50 [16]: > 100 µM
TGI [16]: > 100 µM
GI50 [17]: 30 µM
TGI [17]: > 100 µM
GI50 [18]: > 100 µM
TGI [18]: > 100 µM
GI50 [19]: 90.7 µM
TGI [19]: > 100 µM
GI50 [20]: 37.1 µM
TGI [20]: > 100 µM
GI50 [21]: > 100 µM
TGI [21]: > 100 µM
GI50 [22]: 37.2 µM
TGI [22]: > 100 µM
GI50 [23]: 67.3 µM
TGI [23]: > 100 µM
GI50 [24]: > 100 µM
TGI [24]: > 100 µM
GI50 [25]: 3.89 µM
TGI [25]: > 100 µM
GI50 [26]: > 100 µM
TGI [26]: > 100 µM
GI50 [27]: > 100 µM
TGI [27]: > 100 µM
GI50 [28]: > 100 µM
TGI [28]: > 100 µM
GI50 [29]: > 100 µM
TGI [29]: > 100 µM
GI50 [30]: > 100 µM
TGI [30]: > 100 µM
GI50 [31]: 11 µM
TGI [31]: > 100 µM
GI50 [32]: > 100 µM
TGI [32]: > 100 µM
GI50 [33]: > 100 µM
TGI [33]: > 100 µM
GI50 [34]: 7.82 µM
TGI [34]: > 100 µM
GI50 [35]: 65.6 µM
TGI [35]: > 100 µM
GI50 [36]: > 100 µM
TGI [36]: > 100 µM
GI50 [37]: 25.6 µM
TGI [37]: > 100 µM
GI50 [38]: > 100 µM
TGI [38]: > 100 µM
GI50 [39]: 73.4 µM
TGI [39]: > 100 µM
GI50 [40]: > 100 µM
TGI [40]: > 100 µM
GI50 [41]: > 100 µM
TGI [41]: > 100 µM
GI50 [42]: 7.56 µM
TGI [42]: > 100 µM
GI50 [43]: > 100 µM
TGI [43]: > 100 µM
GI50 [44]: > 100 µM
TGI [44]: > 100 µM
GI50 [45]: > 100 µM
TGI [45]: > 100 µM
GI50 [46]: > 100 µM
TGI [46]: > 100 µM
GI50 [47]: > 100 µM
TGI [47]: > 100 µM
GI50 [48]: > 100 µM
TGI [48]: > 100 µM
GI50 [49]: > 100 µM
TGI [49]: > 100 µM
GI50 [50]: > 100 µM
TGI [50]: > 100 µM
GI50 [51]: > 100 µM
TGI [51]: > 100 µM
GI50 [52]: > 100 µM
TGI [52]: > 100 µM
GI50 [53]: > 100 µM
TGI [53]: > 100 µM
GI50 [54]: 46.1 µM
TGI [54]: > 100 µM
GI50 [55]: > 100 µM
TGI [55]: > 100 µM
GI50 [56]: > 100 µM
TGI [56]: > 100 µM
GI50 [57]: 69.6 µM
TGI [57]: > 100 µM
GI50 [58]: > 100 µM
TGI [58]: > 100 µM
